Reference: patent publication US20130224110A1, “USE OF ADENOSINE RECEPTOR SIGNALING TO MODULATE PERMEABILITY OF BLOOD-BRAIN BARRIER” (CORNELL UNIVERSITY, priority 2010, published 2013)

Columns and labels:
[1] = tested on: blood brain barrier; assay: Evans Blue dye extravasation across the blood brain barrier; format: in vivo, mice; conditions: single i.v. injection 100 μl 0.01 nM one hour before dye
Protocol: The objective of this experiment was to determine if the blood brain barrier could be modulated by activation of adenosine receptors. NECA is a non-selective adenosine receptor agonist, with similar affinities for A1, A2A and A3 adenosine receptors and a low affinity for the A2b adenosine receptor. In order to determine if activation of adenosine receptors would induce extravasation of Evans Blue dye across the blood brain barrier (BBB), mice were treated with: NECA, a non-selective adenosine receptor agonist (n=5, 100 μl 0.01 nM); SCH58261, an A2A adenosine receptor specific antagonist (n=5, 1 mg/kg); pertussis toxin, an agent known to induce BBB leakiness and as such used as a positive control (n=7, 200 μl); and, PBS as a vehicle control (n=5, 100 μl). CD73^−/− mice, which lack the ability to produce extracellular adenosine, were also treated with NECA (n=4, 100 μl 0.01 nM). Treatments were administered as a single i.v. injection one hour prior to i.v. injection of 200 μl 1% Evans Blue dye ([…] total dye injected). Four hours after administration of Evans Blue, mice were anesthetized with a ketamine/xylazine mix and perfused via the left ventricle with ice cold PBS. […] Following extraction, the tissue/solvent mixture was centrifuged at 500×g for 30 minutes and 100 μl of supernatant was read on a BioTex spectrophotometer at 620 nm. Data is expressed as μg Evans Blue/ml DMF.

[2] = tested on: hCMEC/D3 cells; assay: Jurkat cell migration across hCMEC/D3 transwell in vitro BBB; format: cell-based, human; conditions: 24 hours
Protocol: hCMEC/D3 cells were seeded onto Transwell and allowed to grow to confluencey. 2×10^6 Jurkat cells were added to the upper chamber with or without NECA (general adenosine receptor [AR] agonist), CCPA (A1 AR agonist), CGS 21860 (A2A AR agonist), or DMSO vehicle. After 24 hours, migrated cells in the lower chamber were counted. Values are relative to the number of cells that migrate through non-[…]3 seeded transwells.

[3] = tested on: ICAM-1; assay: ICAM-1 expression on the choroid plexus after EAE induction; format: in vivo; conditions: wild type mice after EAE induction, vs DMSO
Protocol: Anesthetized mice were perfused with PBS, and brains, spleens, and spinal cords were isolated and snap frozen in Tissue Tek-OCT medium. Five μm sections (brains in a sagittal orientation) were affixed to Supefrost/Plus slides (Fisher), fixed in acetone, and stored at −80° C. For immunostaining, slides were thawed and treated with 0.03% H2O2 in PBS to block endogenous peroxidase, blocked with Casein (Vector) in normal goat serum (Zymed), and then incubated with anti-CD45 (YW62.3), anti-CD4 (RM4-5), or anti-ICAM-1 (3E2). Slides were incubated with biotinylated goat anti-rat Ig (Jackson ImmunoResearch) and streptavidin-HRP (Zymed) and developed with an AEC (Red) substrate kit (Zymed) and a hematoxylin counterstain. […]
As CD73 catalyzes the breakdown of AMP to adenosine and ARs are expressed in the CNS (Tsutsui et al., “A1 Adenosine Receptor Upregulation and Activation Attenuates Neuroinflammation and Demyelination in a Model of Multiple Sclerosis,” J. Neurosci. 24:1521-1529 (2004)); Rosi et al., The Influence of Brain Inflammation Upon Neuronal Adenosine A2B Receptors,” J. Neurochem. 86:220-227 (2003), which are hereby incorporated by reference in their entirety), it was next determined if AR signaling is important during EAE progression. […] Since CD73 is highly expressed on the choroid plexus (FIG. 6C), it was next determined if ARs are also expressed on the choroid plexus. […]

Compound	Evans Blue dye migration vs. PBS control ([1]; CD73−/− mice)	Evans Blue dye migration vs. control ([1]; WT mice)	lymphocyte (Jurkat) migration across the in vitro BBB [2]	ICAM-1 up regulation on the choroid plexus [3]
CCNC(=O)[C@H]1O[C@@H](n2cnc3c(N)ncnc32)[C@H](O)[C@@H]1O [NECA, 5′-N-ethylcarboxamido adenosine]	almost five fold increase	increase over control mice	induced some migration	–
Nc1nc2c(cnn2CCc2ccccc2)c2nc(-c3ccco3)nn12 [SCH58261, 2-(2-Furanyl)-7-(2-phenylethyl)-7H-pyrazolo[4,3-e][1,2,4]triazolo[1,5-c]pyrimidin-5-amine]	–	–	–	prevented the up regulation of ICAM-1
